Series [1] relates to bovine BCEC monolayers co-cultured with rat astrocytes. Put plainly: Transport and cell uptake of 3-5 kDa FITC-dextran in the presence of peptide (bovine model). The class given is cell-based. Conditions: 1 mg/mL FITC-dextran with 100 µM peptide, luminal, 3 h, abluminal FITC fluorescence; N = 3, n = 3. The method, then:
Transport across bovine or mouse BCEC monolayers co-cultured with rat astrocytes was carried out over 3 h at 37 °C with horizontal shaking (90 rpm). TEER was measured at room temperature using an Endohm 12 cup (World Precision Instruments, Sarasota, FL, USA) connected to a Millicell-ERS device (Millipore, Bedford, MA, USA). TEER was measured before application of the peptides and after each experiment. The bovine model had initial TEER values ranging from 771 to 1332 Ω·cm^2, whereas the mouse model had initial TEER values ranging from 136 to 217 Ω·cm^2.
FITC fluorescence was measured using a NovoStar fluorescence plate reader (BMG Labtech, Offenburg, Germany) with excitation/emission set to 494/518 nm. […] The filters were washed with PBS thrice for 5 min, mounted on glass slides under coverslips using Immu-Mount™ mounting media (Thermo Fischer Scientific, Bedford, MA, USA), and imaged using single wavelength excitation on a Leica SP2 laser-scanning confocal microscope (Leica Microsystems, Wetzlar, Germany).

The test system of another series is blood–brain barrier. Description: In vivo two-photon imaging of BBB permeation. Conditions: 3 nmol peptide/g body weight via femoral artery, 1 h, mean ± SEM, N = 5; for BBB permeation: AUC of change in TAMRA fluorescence in the brain parenchyma: anesthetized C57BL/6 mice, two-photon imaging; for clearance: AUC of decreased fluorescence in the blood stream: blood vessel ROIs. The method, then:
Animals and operational procedure: We used 12–14-week-old C57BL/6 mice (24–26 g) and performed the surgical procedures as described previously. Anesthesia was induced by intraperitoneal (i.p.) injection of xylazine (10 mg/kg body weight; ScanVet, Fredensborg, Denmark) and ketamine (60 mg/kg body weight; MSD Animal Health, København, Denmark), and maintained by supplementary i.p. injections of ketamine (30 mg/kg body weight) every 20–25 min. The trachea was surgically exposed, and a custom-made metal tube inserted into the trachea lumen for mechanical respiration (180–220 μL volume; 190–240 strokes/min) with oxygen-supplemented air (1.5–2 mL/min) using a MiniVent Type 845 ventilator (Harvard Apparatus, Holliston, MA, USA). Catheters were inserted into the femoral vein and the femoral artery. The incisions were closed with surgical staples. After cannulation, the animal was placed in a prone position. The scalp was removed and FeCl3 (0.62 M) administered to clean off the periosteum. The exposed skull was subsequently washed with saline, dried, and attached to a custom-made metal plate using a cyanoacrylate gel (Henkel’s LOCTITE®, Düsseldorf, Germany). The animal head was mounted onto the imaging stage insert and craniotomy performed using a dental drill (7000 rpm; 4 mm lateral and 1 mm posterior to bregma, Ø = 3 mm). The bone flap and dura were carefully removed, and the surface of the brain gently washed with artificial cerebrospinal fluid (120 mM NaCl, 2.8 mM KCl, 1 mM Na2HPO4, 0.876 mM MgCl2, 22 mM NaHCO3, 1.45 mM CaCl2, 2.55 mM glucose, pH 7.4, 37 °C, 5% CO2). We applied 1% type III-A agarose to the brain surface, and a Menzel glass coverslip (4 × 4 mm, 0.08-mm thick; Thermo Fischer Scientific, Bedford, MA, USA) was positioned to seal the major part of the craniotomy, leaving only an opening for the glass microelectrode used in the electrophysiological assessment. The mouse was transferred to the imaging stage. Following the insertion of the glass microelectrode, the anesthesia was switched to α-chloralose administered intravenously at a constant flow of 50 mg/kg body weight/hour. The mouse was left for 25 min for anesthesia equilibration before imaging. During all procedures, the animal was maintained at 37 °C using a YSI-451rectal thermistor probe (E-Z Systems, Palmer, PA, USA) with a TC-1000 Mouse Proportional controlling unit connected to a heating pad (08-13013; CWE Incorporated, Palmer, PA, USA). To ensure optimal animal physiology and level of anesthesia, end-tidal respiratory CO2 was measured using a Capnograph Type 340 (Harvard Apparatus, Holliston, MA, USA), and mean arterial blood pressure was monitored using a BP-1 pressure monitor (World Precision Instruments, Sarasota, FL, USA).
Imaging of BBB permeation: TAMRA-Tat, TAMRA-Tat-NR2B9c, and TAMRA-Tat-N-dimer were administered as 60 µL bolus injections via the catheter inserted into the femoral artery (3 nmol/g body weight). […] The imaging was performed using an SP5 upright laser scanning microscope equipped with a 20 × 1.0 N.A. water-immersion objective (Leica Microsystems, Wetzlar, Germany). Images were obtained in a hyperstack mode, i.e., in a series of Z-stacks in 1-min intervals. Each Z-stack underwent a reduction of dimensionality (maximum signal intensity projection along the Z-axis). TAMRA and FITC were excited with a Millennia Pro MaiTai HP Ti:Sapphire two-photon laser (Spectra Physics, Santa Clara, CA, USA) tuned to 870 nm. The signal was acquired by two multi-alkali NDD photomultipliers after 525–560 and 560–625 nm band pass filters for FITC-dx and TAMRA fluorescence, respectively. Data were exported from LAS AF software (v. 4.4, Leica Microsystems, Wetzlar, Germany) to ImageJ v. 1.48u4 (NIH).

Peptide text beside a SMILES is read from it. * marks the point of attachment. 5TAMRA = CN(C)c1ccc2c(c1)Oc1cc(N(C)C)ccc1C21OC(=O)c2cc(C(=O)*)ccc21

`CC[C@H](C)[C@H](NC(=O)CCOCCOCCN(CCOCCOCCC(=O)N[C@H](C(=O)N[C@@H](CCC(=O)O)C(=O)N[C@H](C(=O)N[C@@H](CC(=O)O)C(=O)N[C@H](C(=O)O)C(C)C)[C@@H](C)O)[C@@H](C)CC)C(=O)[C@H](CCCNC(=N)N)NC(=O)[C@H](CCCNC(=N)N)NC(=O)[C@H](CCCNC(=N)N)NC(=O)[C@H](CCC(N)=O)NC(=O)[C@H](CCCNC(=N)N)NC(=O)[C@H](CCCNC(=N)N)NC(=O)[C@H](CCCCN)NC(=O)[C@H](CCCCN)NC(=O)[C@H](CCCNC(=N)N)NC(=O)CNC(=O)[C@H](Cc1ccc(O)cc1)NC(=O)c1ccc2c(c1)C(=O)OC21c2ccc(N(C)C)cc2Oc2cc(N(C)C)ccc21)C(=O)N[C@@H](CCC(=O)O)C(=O)N[C@H](C(=O)N[C@@H](CC(=O)O)C(=O)N[C@H](C(=O)O)C(C)C)[C@@H](C)O` [TAMRA-Tat-N-dimer]: the “transendothelial permeation of 3-5 kDa FITC-dextran applied with peptide, compared to FITC-dextran alone” value in series [1] is “did not increase”. Also, in the series on blood–brain barrier, the “BBB permeation: AUC of change in TAMRA fluorescence in the brain parenchyma” value (“BBB permeation: AUC of change” below) is listed as 6.90 ± 3.90 F/F0 min and the “clearance: AUC of decreased fluorescence in the blood stream” value (“clearance: AUC of decreased fluorescence” for short) was −15.02 ± 0.55 F/F0 min.
Regarding `CC[C@H](C)[C@H](NC(=O)[C@H](CO)NC(=O)[C@H](CO)NC(=O)[C@H](CC(C)C)NC(=O)[C@H](CCCCN)NC(=O)[C@H](CCCNC(=N)N)NC(=O)[C@H](CCCNC(=N)N)NC(=O)[C@H](CCCNC(=N)N)NC(=O)[C@H](CCC(N)=O)NC(=O)[C@H](CCCNC(=N)N)NC(=O)[C@H](CCCNC(=N)N)NC(=O)[C@H](CCCCN)NC(=O)[C@H](CCCCN)NC(=O)[C@H](CCCNC(=N)N)NC(=O)CNC(=O)[C@H](Cc1ccc(O)cc1)NC(=O)c1ccc2c(c1)C(=O)OC21c2ccc(N(C)C)cc2Oc2cc(N(C)C)ccc21)C(=O)N[C@@H](CCC(=O)O)C(=O)N[C@@H](CO)C(=O)N[C@@H](CC(=O)O)C(=O)N[C@H](C(=O)O)C(C)C` [TAMRA-Tat-NR2B9c] (5TAMRA-YGRKKRRQRRRKLSSIESDV-OH), in the series on blood–brain barrier, the “BBB permeation: AUC of change” value is given as 5.54 ± 2.95 F/F0 min and the “clearance: AUC of decreased fluorescence” value was −4.97 ± 1.26 F/F0 min.
`CN(C)c1ccc2c(c1)Oc1cc(N(C)C)ccc1C21OC(=O)c2cc(C(=O)N[C@@H](Cc3ccc(O)cc3)C(=O)NCC(=O)N[C@@H](CCCNC(=N)N)C(=O)N[C@@H](CCCCN)C(=O)N[C@@H](CCCCN)C(=O)N[C@@H](CCCNC(=N)N)C(=O)N[C@@H](CCCNC(=N)N)C(=O)N[C@@H](CCC(N)=O)C(=O)N[C@@H](CCCNC(=N)N)C(=O)N[C@@H](CCCNC(=N)N)C(=O)N[C@@H](CCCNC(=N)N)C(=O)O)ccc21` [TAMRA-Tat]: in the series on blood–brain barrier, the “BBB permeation: AUC of change” value is recorded as 32.21 ± 10.17 F/F0 min and the “clearance: AUC of decreased fluorescence” value is listed as −17.85 ± 1.71 F/F0 min.

Source of the values: paper PMC7408072 (Pharmaceutics, 2020).
